Measured values published in patent US6596715B1, “Protease inhibitors” (SmithKline Beecham Corporation, priority 1999, dated 2003).

Assay: Chiral / configurational stability at the carbon alpha to the ketone
Format: physicochemical

**Q.** Which results are given for `[2H]C1(NC(=O)[C@H](CC(C)C)NC(=O)c2ccc3ccccc3n2)CCCN(S(=O)(=O)c2cccc[n+]2[O-])C([2H])([2H])C1=O` (stereo partly drawn) [Formula (I), quinoline-2-carboxylic acid {(S)-3-methyl-1-[(2,2,4-trideuterio)-3-oxo-1-(1-oxy-pyridine-2-sulfonyl)-azepan-4-ylcarbamoyl]-butyl}amide]?
**A.** configurational stability at the carbon center alpha to the ketone (compared to the corresponding 5 and 6 membered ring compounds): configurationally more stable; chiral stability (compared to the protonated isomer): superior chiral stability
